Reference: PMC6384781, “Design, Synthesis, Docking Studies and Monoamine Oxidase Inhibition of a Small Library of 1-acetyl- and 1-thiocarbamoyl-3,5-diphenyl-4,5-dihydro-(1H)-pyrazoles” (Molecules, 2019)

Columns and labels:
hMAO-A = target: T1, hMAO-A (Homo sapiens, UniProt P21397); assay: hMAO-A inhibition, Amplex Red fluorometric assay with kynuramine substrate; format: biochemical; conditions: recombinant hMAO-A, kynuramine 50 µM, mean ± SD of triplicate, max tested 100 µM
T1 construct: purchased Sigma-Aldrich; host or cells: insect cells (microsomes)
T1 sequence (P21397 1-527): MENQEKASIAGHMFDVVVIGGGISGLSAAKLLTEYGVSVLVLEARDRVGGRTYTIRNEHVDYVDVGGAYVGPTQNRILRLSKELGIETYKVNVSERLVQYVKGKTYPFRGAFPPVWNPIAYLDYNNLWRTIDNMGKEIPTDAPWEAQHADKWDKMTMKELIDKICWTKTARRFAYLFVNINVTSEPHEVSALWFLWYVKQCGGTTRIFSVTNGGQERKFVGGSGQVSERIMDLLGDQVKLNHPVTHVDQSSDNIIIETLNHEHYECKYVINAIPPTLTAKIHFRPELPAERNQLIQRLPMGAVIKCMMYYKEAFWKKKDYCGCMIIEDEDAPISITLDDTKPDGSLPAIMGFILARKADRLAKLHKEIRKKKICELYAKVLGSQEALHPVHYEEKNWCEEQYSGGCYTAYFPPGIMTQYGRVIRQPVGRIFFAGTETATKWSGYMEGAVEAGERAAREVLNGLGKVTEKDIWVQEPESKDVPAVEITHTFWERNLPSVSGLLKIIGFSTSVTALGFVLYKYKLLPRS
Protocol: (§1) The synthesized compounds P1–P18 were evaluated as hMAO inhibitors using the recombinant hMAOs as enzyme sources and kynuramine as substrate. A fluorometric method based on the Amplex® Red reagent (λex = 560 nm; λem = 590 nm) was used to measure hMAO activity. In this horseradish peroxidase-linked assay, Amplex® Red reacts with hydrogen peroxide that is produced by the MAO catalytic cycle to yield a fluorescent product, resorufin [28]. By thus recording the MAO-catalyzed formation of hydrogen peroxide in the presence of different concentrations of a test inhibitor, sigmoidal plots of enzyme activity versus the logarithm of inhibitor concentration were constructed from which IC50 values were estimated (GraphPad Prism 5). All IC50 values were measured in triplicate and are expressed as the mean ± standard deviation (SD). The inhibitory activities of compounds P1–P18 are summarized in Table 1 along with selectivity index (SI) values which are the ratio of IC50(hMAO-A)/IC50(hMAO-B). SI < 1 indicates selectivity for MAO-A, whereas SI > 1 indicates selectivity for the MAO-B isoform.
(§2) Microsomes from insect cells expressing recombinant hMAO-A or hMAO-B (5 mg protein/mL) served as enzyme sources, and were pre-aliquoted and stored at −70 °C. All enzymatic reactions were carried out to a final volume of 200 µL in black 96-well microtiter plates (Corning). Potassium phosphate buffer (100 mM, pH 7.4, made isotonic with KCl) served as reaction solvent. The reactions contained kynuramine (50 µM), various concentrations of the test inhibitor (0.003–100 μM), horseradish peroxidase (1 unit/mL) and Amplex® Red (200 µM). Stock solutions of the test inhibitors were prepared in DMSO and added to the reactions to yield a final concentration of 4% (v/v) DMSO. The reactions were initiated with the addition of hMAO-A (0.0075 mg protein/mL) or hMAO-B (0.015 mg protein/mL), and incubated at 37 °C for 20 min in a convection oven. At endpoint, the reactions were terminated with the addition of 10 μL pargyline (20 mM) and 10 μL (R)-deprenyl (5 mM) for hMAO-A and hMAO-B, respectively. The concentrations of resorufin in the reactions were determined by fluorescence spectrophotometry (λex = 560 nm, λem = 590 nm). Resorufin was quantitated with a linear calibration curve, which was constructed from standard solutions containing hydrogen peroxide (0.05–1.6 µM). Each standard was prepared to a final volume of 200 μL in potassium phosphate buffer and also contained horseradish peroxidase (1 unit/mL), Amplex® Red (200 µM), 4% DMSO as co-solvent, 10 μL pargyline (20 mM) for hMAO-A and 10 μL (R)-deprenyl (5 mM) for hMAO-B. The IC50 values were determined by constructing sigmoidal curves of MAO catalytic activity versus the logarithm of inhibitor concentration. For this purpose, the one site competition model incorporated into the Prism 5 software package (GraphPad, San Diego, CA, USA) was used. All experiments were carried out in triplicate and the IC50 values are expressed as mean ± standard deviation (SD).

hMAO-B = target: T2, hMAO-B (Homo sapiens, UniProt P27338); assay: hMAO-B inhibition, Amplex Red fluorometric assay with kynuramine substrate; format: biochemical; conditions: recombinant hMAO-B, kynuramine 50 µM, mean ± SD of triplicate, max tested 100 µM
T2 construct: purchased Sigma-Aldrich; host or cells: insect cells (microsomes)
T2 sequence (P27338 1-520): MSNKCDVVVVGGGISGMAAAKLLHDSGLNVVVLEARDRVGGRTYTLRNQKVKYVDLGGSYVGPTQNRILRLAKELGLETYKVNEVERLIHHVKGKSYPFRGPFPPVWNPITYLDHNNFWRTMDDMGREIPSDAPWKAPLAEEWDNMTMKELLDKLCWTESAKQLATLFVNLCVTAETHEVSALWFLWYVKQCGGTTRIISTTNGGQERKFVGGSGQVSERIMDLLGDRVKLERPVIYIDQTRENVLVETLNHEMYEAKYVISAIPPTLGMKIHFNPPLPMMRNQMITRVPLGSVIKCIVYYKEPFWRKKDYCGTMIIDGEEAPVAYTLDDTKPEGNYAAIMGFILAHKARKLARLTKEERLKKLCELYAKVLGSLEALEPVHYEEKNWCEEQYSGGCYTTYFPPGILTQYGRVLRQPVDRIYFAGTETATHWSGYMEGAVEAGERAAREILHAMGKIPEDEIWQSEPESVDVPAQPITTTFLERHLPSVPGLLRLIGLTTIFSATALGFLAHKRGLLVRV
Protocol: as §1, §2

## CC(=O)N1N=C(c2ccc(OCC=C(C)C)cc2)CC1c1cccc2ccccc12 (centres unmarked) [Compound P18, 1-(3-(4-((3-methylbut-2-en-1-yl)oxy)phenyl)-5-(naphthalen-1-yl)-4,5-dihydro-1H-pyrazol-1-yl)ethan-1-one]
other
  melting point: 78 to 80 °C
hMAO-A
  IC50: > 100 µM
  IC50 hMAO-A: devoid of inhibition activity
hMAO-B
  IC50: > 100 µM
  IC50 hMAO-B: devoid of inhibition activity
